What was measured:
[1] = milling, or storage at up to 45° C. at a relative humidity of 25% to 85%; Form I made by the process of WO 2009/069013; cited from earlier work
[2] = Equilibration of physical mixtures of Forms I, II and III in water-2-butanone solvent systems (most thermodynamically stable crystal form); format: physicochemical; conditions: for water content of water-2-butanone mixtures in which Form I is thermodynamically stable: slurry equilibrated by aging
Experimental: Each admixture was then equilibrated by aging at its temperature until the relative amounts of each crystalline form remained constant. At the completion of equilibration, each admixture contained a slurry of a single crystal form, or a slurry in which one crystal form dominates. This crystal form is the most thermodynamically stable at the admixture conditions of temperature and water concentration. Form. […] Similarly, Form I was determined to be thermodynamically stable in water-2-butanone mixtures at about 25° C. when the mixtures contained from 3.5 to 6.0 wt. % water, and at about 50° C. when the mixtures contained from 5.0 to 8.5 wt. % water. Additional data was collected for the boundary between form I and form III; i.e., at 20° C. […] The data are shown in a phase map of temperature versus wt. % water in FIG. 1.

[3] = EtOH-water mixtures at 25° C.; cited from earlier work

- water content in 2-butanone at which Form I is more stable than Form III (Form I/Form III boundary) ([2]; 20° C.): less than 5.7 wt % water
- water content in 2-butanone at which Form I is more stable than Form III (Form I/Form III boundary) ([2]; 30° C.): less than 6.6 wt % water
- water content of water-2-butanone mixtures in which Form I is thermodynamically stable ([2]; about 0° C.): 2.5 to 5.0 wt. % water
- water content of water-2-butanone mixtures in which Form I is thermodynamically stable ([2]; about 25° C.): 3.5 to 6.0 wt. % water
- water content of water-2-butanone mixtures in which Form I is thermodynamically stable ([2]; about 50° C.): 5.0 to 8.5 wt. % water
SMILES: Nc1ccn([C@@H]2CS[C@H](CO)O2)c(=O)n1 [Form I]
- conversion of Form I to Form II [1]: will not convert to Form II
- water that must be present in EtOH to convert the excess solid to Form I at equilibrium [3]: 18-20%

From US8796452B2, “Preparation of lamivudine form I” (Merck Sharp & Dohme Corp., priority 2010, dated 2014)
